In PubChem BioAssay (NCI):
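Briefly, cells in 96-well plates were exposed to five compound concentrations for 48 h, and endpoints were estimated by linear interpolation. TGI is the concentration that stops growth completely.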

Legend:
Test in all cases: NCI-60 cell line screen, 48 h
[1] = tested on: HCT-15 colon
[2] = tested on: OVCAR-8 ovarian
[3] = tested on: HOP-92 NSCLC
[4] = tested on: OVCAR-4 ovarian
[5] = tested on: SK-MEL-28 melanoma
[6] = tested on: LXFL 529 NSCLC
[7] = tested on: M19-MEL melanoma
[8] = tested on: HOP-18 NSCLC
[9] = tested on: XF 498 CNS
[10] = tested on: A498 renal
[11] = tested on: SK-MEL-5 melanoma
[12] = tested on: COLO 205 colon
[13] = tested on: SF-268 CNS
[14] = tested on: K-562 leukemia
[15] = tested on: SK-MEL-2 melanoma
[16] = tested on: RPMI-8226 leukemia
[17] = tested on: TK-10 renal
[18] = tested on: SF-539 CNS
[19] = tested on: EKVX NSCLC
[20] = tested on: 786-0 renal
[21] = tested on: SNB-75 CNS
[22] = tested on: DMS 114 small cell lung
[23] = tested on: A549 NSCLC
[24] = tested on: CCRF-CEM leukemia
[25] = tested on: ACHN renal
[26] = tested on: HCT-116 colon
[27] = tested on: OVCAR-5 ovarian
[28] = tested on: LOX IMVI melanoma
[29] = tested on: SK-OV-3 ovarian
[30] = tested on: M14 melanoma
[31] = tested on: RXF-631 renal
[32] = tested on: KM12 colon
[33] = tested on: NCI-H23 lung
[34] = tested on: KM20L2 colon
[35] = tested on: OVCAR-3 ovarian
[36] = tested on: SNB-78 CNS
[37] = tested on: RXF 393 renal
[38] = tested on: SN12C renal
[39] = tested on: IGROV1 ovarian
[40] = tested on: NCI-H522 lung
[41] = tested on: HT29 colon
[42] = tested on: U251 CNS
[43] = tested on: UO-31 renal
[44] = tested on: CAKI-1 renal
[45] = tested on: MALME-3M melanoma
[46] = tested on: MOLT-4 leukemia
[47] = tested on: SW-620 colon
[48] = tested on: UACC-257 melanoma
[49] = tested on: DMS 273 small cell lung
[50] = tested on: UACC-62 melanoma
[51] = tested on: SNB-19 CNS
[52] = tested on: NCI/ADR-RES ovarian
[53] = tested on: DLD-1 colon
[54] = tested on: MDA-MB-435
[55] = tested on: HCC-2998 colon
[56] = tested on: SF-295 CNS
[57] = tested on: HL-60(TB) leukemia
[58] = tested on: BT-549 breast
[59] = tested on: SR leukemia
[60] = tested on: DU-145 prostate
[61] = tested on: MDA-MB-231 breast
[62] = tested on: HOP-62 NSCLC
[63] = tested on: NCI-H226 lung
[64] = tested on: PC-3 prostate
[65] = tested on: NCI-H460 lung
[66] = tested on: MDA-N
[67] = tested on: MCF7 breast

## CC1=N/C(=C/c2ccc3c(c2)OCO3)C(=O)O1
[1]
  TGI: > 100 µM
[2]
  TGI: > 100 µM
[3]
  TGI: > 100 µM
[4]
  TGI: > 100 µM
[5]
  TGI: > 100 µM
[6]
  TGI: > 100 µM
[7]
  TGI: > 100 µM
[8]
  TGI: > 100 µM
[9]
  TGI: > 100 µM
[10]
  TGI: > 100 µM
[11]
  TGI: > 100 µM
[12]
  TGI: > 100 µM
[13]
  TGI: > 100 µM
[14]
  TGI: > 100 µM
[15]
  TGI: > 100 µM
[16]
  TGI: > 100 µM
[17]
  TGI: > 100 µM
[18]
  TGI: > 100 µM
[19]
  TGI: > 100 µM
[20]
  TGI: > 100 µM
[21]
  TGI: > 100 µM
[22]
  TGI: > 100 µM
[23]
  TGI: > 100 µM
[24]
  TGI: > 100 µM
[25]
  TGI: > 100 µM
[26]
  TGI: > 100 µM
[27]
  TGI: > 100 µM
[28]
  TGI: > 100 µM
[29]
  TGI: > 100 µM
[30]
  TGI: > 100 µM
[31]
  TGI: > 100 µM
[32]
  TGI: > 100 µM
[33]
  TGI: > 100 µM
[34]
  TGI: > 100 µM
[35]
  TGI: > 100 µM
[36]
  TGI: > 100 µM
[37]
  TGI: > 100 µM
[38]
  TGI: > 100 µM
[39]
  TGI: > 100 µM
[40]
  TGI: > 100 µM
[41]
  TGI: > 100 µM
[42]
  TGI: > 100 µM
[43]
  TGI: > 100 µM
[44]
  TGI: > 100 µM
[45]
  TGI: > 100 µM
[46]
  TGI: > 100 µM
[47]
  TGI: > 100 µM
[48]
  TGI: > 100 µM
[49]
  TGI: > 100 µM
[50]
  TGI: > 100 µM
[51]
  TGI: > 100 µM

## COC(COC(N)=O)C1=C(N2CC2)C(=O)C(C)=C(N2CC2)C1=O (configuration not stated)
[1]
  TGI: 0.762 µM
[2]
  TGI: 0.24 µM
[3]
  TGI: 1.15 µM
[52]
  TGI: 0.101 µM
[4]
  TGI: 0.413 µM
[5]
  TGI: 0.484 µM
[53]
  TGI: 1.03 µM
[6]
  TGI: 0.672 µM
[7]
  TGI: 0.507 µM
[8]
  TGI: 0.902 µM
[54]
  TGI: 1.42 µM
[9]
  TGI: 0.415 µM
[10]
  TGI: 0.267 µM
[11]
  TGI: 0.128 µM
[12]
  TGI: 0.389 µM
[13]
  TGI: 0.624 µM
[55]
  TGI: 0.311 µM
[14]
  TGI: 1.76 µM
[15]
  TGI: 0.492 µM
[16]
  TGI: 3.16 µM
[17]
  TGI: 2.64 µM
[18]
  TGI: 0.202 µM
[19]
  TGI: 1.24 µM
[56]
  TGI: 0.413 µM
[20]
  TGI: 0.186 µM
[21]
  TGI: 0.322 µM
[22]
  TGI: 0.38 µM
[23]
  TGI: 2.21 µM
[57]
  TGI: 2.72 µM
[58]
  TGI: 0.304 µM
[24]
  TGI: 24.6 µM
[25]
  TGI: 0.0449 µM
[26]
  TGI: 0.134 µM
[27]
  TGI: 0.71 µM
[59]
  TGI: 2.19 µM
[28]
  TGI: 0.326 µM
[29]
  TGI: 1.8 µM
[60]
  TGI: 0.0264 µM
[30]
  TGI: 0.147 µM
[32]
  TGI: 0.365 µM
[61]
  TGI: 0.859 µM
[33]
  TGI: 0.0907 µM
[34]
  TGI: 0.525 µM
[62]
  TGI: 0.227 µM
[35]
  TGI: 0.379 µM
[36]
  TGI: 8.44 µM
[37]
  TGI: 0.256 µM
[63]
  TGI: 0.299 µM
[38]
  TGI: 1.28 µM
[39]
  TGI: 0.995 µM
[40]
  TGI: 0.156 µM
[41]
  TGI: 0.521 µM
[64]
  TGI: 1.51 µM
[65]
  TGI: 0.115 µM
[42]
  TGI: 0.698 µM
[43]
  TGI: 0.0796 µM
[44]
  TGI: 0.085 µM
[45]
  TGI: 0.301 µM
[66]
  TGI: 0.269 µM
[46]
  TGI: 7.26 µM
[47]
  TGI: 0.703 µM
[48]
  TGI: 0.579 µM
[49]
  TGI: 0.0752 µM
[67]
  TGI: 1 µM
[50]
  TGI: 0.173 µM
[51]
  TGI: 1.75 µM

## O=C1C=C(Nc2ccc(Cl)cc2Cl)c2ccccc2C1=O
[1]
  TGI: > 100 µM
[2]
  TGI: > 100 µM
[3]
  TGI: 56.5 µM
[4]
  TGI: > 100 µM
[5]
  TGI: > 100 µM
[53]
  TGI: > 100 µM
[6]
  TGI: > 100 µM
[7]
  TGI: 26.3 µM
[10]
  TGI: > 100 µM
[12]
  TGI: > 100 µM
[13]
  TGI: > 100 µM
[55]
  TGI: > 100 µM
[14]
  TGI: > 100 µM
[15]
  TGI: 60.8 µM
[16]
  TGI: > 100 µM
[17]
  TGI: > 100 µM
[18]
  TGI: > 100 µM
[19]
  TGI: > 100 µM
[56]
  TGI: > 100 µM
[20]
  TGI: > 100 µM
[21]
  TGI: 70.4 µM
[22]
  TGI: 64.1 µM
[23]
  TGI: > 100 µM
[57]
  TGI: 92.5 µM
[24]
  TGI: 85 µM
[25]
  TGI: > 100 µM
[26]
  TGI: > 100 µM
[27]
  TGI: > 100 µM
[59]
  TGI: 74.9 µM
[29]
  TGI: > 100 µM
[30]
  TGI: 57.8 µM
[31]
  TGI: > 100 µM
[32]
  TGI: > 100 µM
[33]
  TGI: 54.5 µM
[34]
  TGI: > 100 µM
[62]
  TGI: > 100 µM
[35]
  TGI: > 100 µM
[36]
  TGI: > 100 µM
[37]
  TGI: > 100 µM
[63]
  TGI: 87.2 µM
[38]
  TGI: > 100 µM
[39]
  TGI: > 100 µM
[40]
  TGI: > 100 µM
[41]
  TGI: > 100 µM
[65]
  TGI: > 100 µM
[42]
  TGI: > 100 µM
[43]
  TGI: > 100 µM
[44]
  TGI: > 100 µM
[45]
  TGI: 71 µM
[46]
  TGI: > 100 µM
[47]
  TGI: > 100 µM
[48]
  TGI: > 100 µM
[49]
  TGI: 79.5 µM
[50]
  TGI: 32.8 µM
[51]
  TGI: > 100 µM

## C=CCC1(CN(C)C)CC/C(=C\c2ccc(OC)cc2)C1=O (configuration not stated)
[1]
  TGI: > 100 µM
[2]
  TGI: > 100 µM
[3]
  TGI: > 100 µM
[4]
  TGI: > 100 µM
[5]
  TGI: > 100 µM
[53]
  TGI: > 100 µM
[6]
  TGI: > 100 µM
[7]
  TGI: > 100 µM
[8]
  TGI: > 100 µM
[10]
  TGI: > 100 µM
[11]
  TGI: > 100 µM
[12]
  TGI: > 100 µM
[13]
  TGI: > 100 µM
[55]
  TGI: > 100 µM
[14]
  TGI: > 100 µM
[15]
  TGI: > 100 µM
[16]
  TGI: 52.6 µM
[17]
  TGI: > 100 µM
[18]
  TGI: > 100 µM
[19]
  TGI: > 100 µM
[56]
  TGI: > 100 µM
[20]
  TGI: > 100 µM
[21]
  TGI: > 100 µM
[22]
  TGI: > 100 µM
[23]
  TGI: > 100 µM
[57]
  TGI: 45.6 µM
[24]
  TGI: > 100 µM
[25]
  TGI: > 100 µM
[26]
  TGI: > 100 µM
[27]
  TGI: > 100 µM
[28]
  TGI: > 100 µM
[30]
  TGI: > 100 µM
[31]
  TGI: 49 µM
[32]
  TGI: > 100 µM
[33]
  TGI: > 100 µM
[34]
  TGI: > 100 µM
[62]
  TGI: > 100 µM
[35]
  TGI: > 100 µM
[36]
  TGI: > 100 µM
[37]
  TGI: > 100 µM
[63]
  TGI: > 100 µM
[38]
  TGI: > 100 µM
[39]
  TGI: > 100 µM
[40]
  TGI: 81.9 µM
[41]
  TGI: > 100 µM
[65]
  TGI: > 100 µM
[42]
  TGI: > 100 µM
[43]
  TGI: > 100 µM
[45]
  TGI: > 100 µM
[46]
  TGI: > 100 µM
[47]
  TGI: > 100 µM
[48]
  TGI: > 100 µM
[49]
  TGI: > 100 µM
[50]
  TGI: > 100 µM
[51]
  TGI: > 100 µM
